Laboratory results published in patent publication US20070004634A1 (Novo Nordisk A/S, priority 1998, published 2007).
Blank lines part the entries; values can stand above or below the molecule they belong to. Positions of bridges follow the written chain, without caps; N, C: chain ends. Residues, ends and D or L forms follow the SMILES beside them. No end group written: not given here.

How the values were obtained:
[1] = system: free fat cells (adipocytes); assay: Adipocyte / free fat cell (FFC) assay, 3H glucose incorporation into lipid
[2] = molecular target: T1, human insulin receptor (HIR) (Homo sapiens, UniProt P06213); assay: Insulin receptor binding, competition with 125I-labeled insulin (HIR Kd); details: MBP-fusion or recombinant peptide as listed
T1 construct: made in house

[3] = system: FDC-P2 cells expressing the IL-3 and human IGF-1R receptors; assay: IGF-1 proliferation assay in FDC-P2 cells, agonist format; details: FDC-P2 cells, agonist format; for EC50: read-out: nM ED50 Growth
[4] = molecular target: T2, soluble human insulin receptor-immunoglobulin heavy chain chimera (sIR-Fc) (Homo sapiens, UniProt P06213); assay: Fluorescence polarization, competition with FITC-RP9 for sIR-Fc; type: binding; details: higher values indicated higher affinity for IR than IGF-1R
T2 construct: replacing the transmembrane domain and the intracellular domain of IR with constant domains from immunoglobulin Fc or λ subunits; made in house; host or cells: human embryonic kidney 293 cells (Bass et al.)

IR = IR (Homo sapiens, UniProt P06213); assay: Phage ELISA, binding of phage clones to IR (ratio over background); details: ratio of IR divided by ratio of IGF-1R
IGF-1R = IGF-1R (Homo sapiens, UniProt P08069); assay: Phage ELISA, binding of phage clones to IGF-1R (ratio over background); details: ratio of IGF-1R divided by ratio of IR
[5] = free fat cell assay potency class, Table 7
[6] = FFC assay potency grade, 0, + to ++++++, −

Sequence of IGF-1R (P08069 31-736 limits assumed): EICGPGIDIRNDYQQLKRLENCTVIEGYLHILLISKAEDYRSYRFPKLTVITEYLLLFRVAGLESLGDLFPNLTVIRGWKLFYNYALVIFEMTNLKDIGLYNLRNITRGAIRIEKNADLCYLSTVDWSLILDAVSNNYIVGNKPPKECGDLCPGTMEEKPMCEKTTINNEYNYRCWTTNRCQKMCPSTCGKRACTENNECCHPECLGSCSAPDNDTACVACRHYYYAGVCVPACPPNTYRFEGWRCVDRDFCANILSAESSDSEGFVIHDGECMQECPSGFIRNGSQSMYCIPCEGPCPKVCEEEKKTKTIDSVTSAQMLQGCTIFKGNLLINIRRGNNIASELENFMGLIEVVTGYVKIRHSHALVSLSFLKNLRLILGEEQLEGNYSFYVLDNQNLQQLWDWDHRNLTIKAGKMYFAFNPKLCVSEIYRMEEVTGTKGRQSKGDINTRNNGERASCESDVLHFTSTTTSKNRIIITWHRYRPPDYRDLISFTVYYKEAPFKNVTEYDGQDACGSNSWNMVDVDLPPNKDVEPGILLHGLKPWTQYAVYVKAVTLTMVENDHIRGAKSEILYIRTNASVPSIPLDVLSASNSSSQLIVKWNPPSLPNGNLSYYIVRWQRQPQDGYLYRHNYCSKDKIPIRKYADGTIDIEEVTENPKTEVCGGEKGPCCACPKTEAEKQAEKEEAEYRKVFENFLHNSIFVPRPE
Sequence of IGF-1R (P08069 741-935 limits assumed): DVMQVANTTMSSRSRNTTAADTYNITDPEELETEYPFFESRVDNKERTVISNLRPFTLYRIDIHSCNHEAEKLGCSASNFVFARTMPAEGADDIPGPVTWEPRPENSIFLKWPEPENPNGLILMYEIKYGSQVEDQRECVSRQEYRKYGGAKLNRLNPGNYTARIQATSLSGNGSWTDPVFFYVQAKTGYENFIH
Sequence of IR (P06213 28-758 limits assumed): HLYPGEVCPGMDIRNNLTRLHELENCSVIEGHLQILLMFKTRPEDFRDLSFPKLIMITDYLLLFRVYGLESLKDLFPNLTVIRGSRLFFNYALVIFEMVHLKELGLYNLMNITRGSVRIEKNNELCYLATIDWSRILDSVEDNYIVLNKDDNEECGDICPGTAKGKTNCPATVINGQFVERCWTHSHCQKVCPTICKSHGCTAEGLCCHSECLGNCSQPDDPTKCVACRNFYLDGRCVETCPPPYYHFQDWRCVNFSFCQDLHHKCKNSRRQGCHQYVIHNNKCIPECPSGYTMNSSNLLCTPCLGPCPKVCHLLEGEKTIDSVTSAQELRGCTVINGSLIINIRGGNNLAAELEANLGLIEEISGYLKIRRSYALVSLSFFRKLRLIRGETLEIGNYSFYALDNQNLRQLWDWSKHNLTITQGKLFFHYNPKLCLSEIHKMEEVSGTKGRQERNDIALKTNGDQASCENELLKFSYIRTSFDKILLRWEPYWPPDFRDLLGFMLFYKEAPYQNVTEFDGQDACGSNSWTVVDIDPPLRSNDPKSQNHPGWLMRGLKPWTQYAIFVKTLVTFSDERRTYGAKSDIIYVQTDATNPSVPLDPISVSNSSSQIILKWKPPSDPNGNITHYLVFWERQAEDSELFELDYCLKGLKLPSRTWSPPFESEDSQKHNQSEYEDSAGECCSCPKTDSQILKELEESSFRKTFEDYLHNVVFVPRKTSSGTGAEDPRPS
Sequence of IR (P06213 763-956 limits assumed): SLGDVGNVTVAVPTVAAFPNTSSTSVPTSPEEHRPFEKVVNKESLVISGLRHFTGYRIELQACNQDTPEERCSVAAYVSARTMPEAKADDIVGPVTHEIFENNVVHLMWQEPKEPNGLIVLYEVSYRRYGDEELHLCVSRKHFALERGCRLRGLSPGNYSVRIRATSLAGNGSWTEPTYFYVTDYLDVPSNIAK
T1 sequence (P06213 28-758 limits assumed): as the sequence (P06213 28-758 limits assumed) above
T1 sequence (P06213 763-1382 limits assumed): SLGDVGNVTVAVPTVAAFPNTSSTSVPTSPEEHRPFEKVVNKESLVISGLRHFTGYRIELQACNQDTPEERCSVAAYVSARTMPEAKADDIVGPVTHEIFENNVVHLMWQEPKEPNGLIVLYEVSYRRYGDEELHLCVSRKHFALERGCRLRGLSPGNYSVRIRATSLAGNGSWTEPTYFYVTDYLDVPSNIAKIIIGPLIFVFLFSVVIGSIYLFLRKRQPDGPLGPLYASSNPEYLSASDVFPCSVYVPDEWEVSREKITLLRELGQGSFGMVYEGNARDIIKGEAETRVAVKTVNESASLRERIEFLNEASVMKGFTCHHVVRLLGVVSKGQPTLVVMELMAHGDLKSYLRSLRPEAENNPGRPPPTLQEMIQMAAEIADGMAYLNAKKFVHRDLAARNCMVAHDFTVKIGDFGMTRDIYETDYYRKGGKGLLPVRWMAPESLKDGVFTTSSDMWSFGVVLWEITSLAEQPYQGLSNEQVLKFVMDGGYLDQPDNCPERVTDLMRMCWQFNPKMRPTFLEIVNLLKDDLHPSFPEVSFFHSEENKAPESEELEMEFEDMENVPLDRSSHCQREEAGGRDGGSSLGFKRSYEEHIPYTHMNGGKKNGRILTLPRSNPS
T2 sequence (P06213 28-758 limits assumed, stated change not applied): as the sequence (P06213 28-758 limits assumed) above
T2 sequence (P06213 763-956 limits assumed, stated change not applied): as the sequence (P06213 763-956 limits assumed) above

Molecule: ESFYDWFERQ [Peptide S400]
FFC ([1]; Table 6, free fat cell assay): 0
FFC [1, 5]: 0

Molecule: CC(C)[C@H](NC(=O)[C@H](Cc1ccccc1)NC(=O)[C@H](Cc1c[nH]c2ccccc12)NC(=O)[C@H](CC(=O)O)NC(=O)[C@H](Cc1ccc(O)cc1)NC(=O)[C@H](Cc1ccccc1)NC(=O)[C@H](CC(N)=O)NC(=O)[C@H](CCC(=O)O)NC(=O)[C@H](Cc1c[nH]cn1)NC(=O)[C@@H](N)Cc1ccccc1)C(=O)N[C@@H](CCCNC(=N)N)C(=O)N[C@@H](CCC(N)=O)C(=O)N[C@H](C(=O)N[C@@H](CO)C(=O)N[C@@H](CCCCN)C(=O)N[C@@H](CCCCN)C(=O)NCCCC[C@H](NC(=O)[C@H](CCCCN)NC(=O)[C@H](CCCCN)NC(=O)[C@H](CO)NC(=O)[C@@H](NC(=O)[C@H](CCC(N)=O)NC(=O)[C@H](CCCNC(=N)N)NC(=O)[C@@H](NC(=O)[C@H](Cc1ccccc1)NC(=O)[C@H](Cc1c[nH]c2ccccc12)NC(=O)[C@H](CC(=O)O)NC(=O)[C@H](Cc1ccc(O)cc1)NC(=O)[C@H](Cc1ccccc1)NC(=O)[C@H](CC(N)=O)NC(=O)[C@H](CCC(=O)O)NC(=O)[C@H](Cc1c[nH]cn1)NC(=O)[C@@H](N)Cc1ccccc1)C(C)C)C(C)C)C(=O)O)C(C)C [Peptide S145]
FFC [1, 6]: ++

Kd [2]: 25 nM
Molecule: MQNDDGSLDESFYDWFERQLGEEEGGDHHHHHHPG [RB570]

Molecule: (ESFYDWFERQLGK)2-23 [Peptide S415]
activity in the free fat cell (FFC) assay / at IR, in words [1]: highly potent

Molecule: GSLDESFYDWFERQ [Peptide S394]
activity in the free fat cell (FFC) assay / at IR, in words [1]: potency similar to full-length RP9 monomer peptides
FFC [1, 5]: +

Kd [2]: 210 nM
Molecule: MGSLDESFYDWFERQLGEEEGGDHHHHHHPG [RB569]

Molecule: WLDQERAWLWCEISGRGCLSGGSGGSGGSGGSGSLDESFYDWFERQLGKK (disulfide 11-18 (inferred)) [D815-RP9 12 aa]
Max Action [3]: 100%
EC50 [3]: 10000 nM

Molecule: CC(C)[C@H](NC(=O)[C@H](Cc1ccccc1)NC(=O)[C@H](Cc1c[nH]c2ccccc12)NC(=O)[C@H](CC(=O)O)NC(=O)[C@H](Cc1ccc(O)cc1)NC(=O)[C@H](Cc1ccccc1)NC(=O)[C@H](CC(N)=O)NC(=O)[C@H](CCC(=O)O)NC(=O)[C@H](Cc1c[nH]cn1)NC(=O)[C@H](Cc1ccccc1)NC(=O)[C@@H](N)CNC(=O)CON=CCCCCCCC=NOCC(=O)NC[C@H](N)C(=O)N[C@@H](Cc1ccccc1)C(=O)N[C@@H](Cc1c[nH]cn1)C(=O)N[C@@H](CCC(=O)O)C(=O)N[C@@H](CC(N)=O)C(=O)N[C@@H](Cc1ccccc1)C(=O)N[C@@H](Cc1ccc(O)cc1)C(=O)N[C@@H](CC(=O)O)C(=O)N[C@@H](Cc1c[nH]c2ccccc12)C(=O)N[C@@H](Cc1ccccc1)C(=O)N[C@H](C(=O)N[C@@H](CCCNC(=N)N)C(=O)N[C@@H](CCC(N)=O)C(=O)N[C@H](C(=O)N[C@@H](CO)C(=O)N[C@@H](CCCCN)C(=O)N[C@@H](CCCCN)C(N)=O)C(C)C)C(C)C)C(=O)N[C@@H](CCCNC(=N)N)C(=O)N[C@@H](CCC(N)=O)C(=O)N[C@H](C(=O)N[C@@H](CO)C(=O)N[C@@H](CCCCN)C(=O)N[C@@H](CCCCN)C(N)=O)C(C)C [Peptide S172]
FFC [1, 6]: +++

Molecule: CC[C@@H](C)[C@@H](NC(=O)[C@H](CCC(=O)O)NC(=O)[C@H](CC(=O)O)NC(=O)[C@H](Cc1ccccc1)NC(=O)[C@H](Cc1c[nH]c2ccccc12)NC(=O)[C@H](CCC(=O)O)NC(=O)[C@H](Cc1ccc(O)cc1)NC(=O)[C@H](Cc1ccccc1)NC(=O)[C@H](CCC(=O)O)NC(=O)[C@H](CCCCN)NC(=O)[C@H](CC(N)=O)NC(=O)[C@H](CC(N)=O)NC(=O)[C@@H](N)CCCCN)C(=O)NCC(=O)N[C@H](CCC(N)=O)C(=O)O [Peptide S320] (HELM PEPTIDE1{K.N.N.K.E.F.Y.E.W.F.D.E.[dI].G.[dQ]}$$$$V2.0; N-terminus and C-terminus assumed)
FFC [1, 6]: 0

Molecule: GSLDESFYDWFER [Peptide S396]
FFC ([1]; Table 6, free fat cell assay): 0
FFC [1, 5]: 0

Molecule: RB596 (MQNDDGSLDESFYDWFERQLGHHHHHHPG)
FF ([1]; fat cell potency, symbols ++ and − not defined in the table): 9.4*10^−8

Bndg Ratio IGF-1R/IR [4]: 9
Molecule: FHENFYDWFVQRVSKK [H2C (D117)]

Molecule: MADYKDDDDKWLDQEWAWVQCEVYGRGCPSGGSGGSGSLDESFYDWFERQLGKKAAA(ETAG)PG [Peptide 539]
activity in the free fat cell (FFC) assay / at IR, in words [1]: full agonist

Molecule: CC(C)[C@H](NC(=O)[C@H](Cc1ccccc1)NC(=O)[C@H](Cc1c[nH]c2ccccc12)NC(=O)[C@H](CC(=O)O)NC(=O)[C@H](Cc1ccc(O)cc1)NC(=O)[C@H](Cc1ccccc1)NC(=O)[C@H](CC(N)=O)NC(=O)[C@H](CCC(=O)O)NC(=O)[C@H](Cc1c[nH]cn1)NC(=O)[C@@H](N)Cc1ccccc1)C(=O)N[C@@H](CCCNC(=N)N)C(=O)N[C@@H](CCC(N)=O)C(=O)N[C@H](C(=O)N[C@@H](CO)C(=O)N[C@@H](CCCCN)C(=O)N[C@@H](CCCCN)C(=O)NC[C@H](NC(=O)[C@H](CCCCN)NC(=O)[C@H](CCCCN)NC(=O)[C@H](CO)NC(=O)[C@@H](NC(=O)[C@H](CCC(N)=O)NC(=O)[C@H](CCCNC(=N)N)NC(=O)[C@@H](NC(=O)[C@H](Cc1ccccc1)NC(=O)[C@H](Cc1c[nH]c2ccccc12)NC(=O)[C@H](CC(=O)O)NC(=O)[C@H](Cc1ccc(O)cc1)NC(=O)[C@H](Cc1ccccc1)NC(=O)[C@H](CC(N)=O)NC(=O)[C@H](CCC(=O)O)NC(=O)[C@H](Cc1c[nH]cn1)NC(=O)[C@@H](N)Cc1ccccc1)C(C)C)C(C)C)C(=O)O)C(C)C [Peptide S128]
FFC [1, 6]: ++

Molecule: CC(C)[C@H](NC(=O)[C@H](Cc1ccccc1)NC(=O)[C@H](Cc1c[nH]c2ccccc12)NC(=O)[C@H](CC(=O)O)NC(=O)[C@H](Cc1ccc(O)cc1)NC(=O)[C@H](Cc1ccccc1)NC(=O)[C@H](CC(N)=O)NC(=O)[C@H](CCC(=O)O)NC(=O)[C@H](Cc1c[nH]cn1)NC(=O)[C@H](Cc1ccccc1)NC(=O)CNC(=O)CNC(=O)[C@@H](N)CSSC[C@H](N)C(=O)NCC(=O)NCC(=O)N[C@@H](Cc1ccccc1)C(=O)N[C@@H](Cc1c[nH]cn1)C(=O)N[C@@H](CCC(=O)O)C(=O)N[C@@H](CC(N)=O)C(=O)N[C@@H](Cc1ccccc1)C(=O)N[C@@H](Cc1ccc(O)cc1)C(=O)N[C@@H](CC(=O)O)C(=O)N[C@@H](Cc1c[nH]c2ccccc12)C(=O)N[C@@H](Cc1ccccc1)C(=O)N[C@H](C(=O)N[C@@H](CCCNC(=N)N)C(=O)N[C@@H](CCC(N)=O)C(=O)N[C@H](C(=O)N[C@@H](CO)C(=O)N[C@@H](CCCCN)C(=O)N[C@@H](CCCCN)C(=O)O)C(C)C)C(C)C)C(=O)N[C@@H](CCCNC(=N)N)C(=O)N[C@@H](CCC(N)=O)C(=O)N[C@H](C(=O)N[C@@H](CO)C(=O)N[C@@H](CCCCN)C(=O)N[C@@H](CCCCN)C(=O)O)C(C)C [Peptide S228]
FFC [1, 6]: ++

Molecule: WLDQERAWLWCEISGRGCLSGGSGGSGSLDESFYDWFERQLGKK (disulfide 11-18 (inferred)) [D815-RP9 6 aa]
Max Action [3]: >50%
EC50 [3]: 50 nM

Comparisons IR/IGF-1R (IR): 0.5
Comparisons IGF-1R/IR (IGF-1R): 1.9
Molecule: CGAKMTGTPNDPFYHKLSELLQRG [Peptide B6Hα-3-E6-IR]

Comparisons IR/IGF-1R (IR): 0.3
Comparisons IGF-1R/IR (IGF-1R): 3.7
Molecule: RCGRELYHSTFYDWFDRQVAGRTCPS [H2CA-1-A7-IGFR]

Molecule: GSLDESFYDWFERQLG [Peptide S386]
FFC [1, 6]: +

Comparisons IR/IGF-1R (IR): 0.3
Comparisons IGF-1R/IR (IGF-1R): 3.4
Molecule: AETSVQVGWIRLQSVWPGEHWNTVDPFYHKLSELLRGSGA [Peptide B6L-4-D7-IR]

Molecule: CC(C)[C@H](NC(=O)[C@H](Cc1ccccc1)NC(=O)[C@H](Cc1c[nH]c2ccccc12)NC(=O)[C@H](CC(=O)O)NC(=O)[C@H](Cc1ccc(O)cc1)NC(=O)[C@H](Cc1ccccc1)NC(=O)[C@H](CC(N)=O)NC(=O)[C@H](CCC(=O)O)NC(=O)[C@H](Cc1c[nH]cn1)NC(=O)[C@H](Cc1ccccc1)NC(=O)[C@@H](N)CNC(=O)CON=CCCCCC=NOCC(=O)NC[C@H](N)C(=O)N[C@@H](Cc1ccccc1)C(=O)N[C@@H](Cc1c[nH]cn1)C(=O)N[C@@H](CCC(=O)O)C(=O)N[C@@H](CC(N)=O)C(=O)N[C@@H](Cc1ccccc1)C(=O)N[C@@H](Cc1ccc(O)cc1)C(=O)N[C@@H](CC(=O)O)C(=O)N[C@@H](Cc1c[nH]c2ccccc12)C(=O)N[C@@H](Cc1ccccc1)C(=O)N[C@H](C(=O)N[C@@H](CCCNC(=N)N)C(=O)N[C@@H](CCC(N)=O)C(=O)N[C@H](C(=O)N[C@@H](CO)C(=O)N[C@@H](CCCCN)C(=O)N[C@@H](CCCCN)C(N)=O)C(C)C)C(C)C)C(=O)N[C@@H](CCCNC(=N)N)C(=O)N[C@@H](CCC(N)=O)C(=O)N[C@H](C(=O)N[C@@H](CO)C(=O)N[C@@H](CCCCN)C(=O)N[C@@H](CCCCN)C(N)=O)C(C)C [Peptide S169]
FFC [1, 6]: ++

Comparisons IR/IGF-1R (IR): 0.1
Comparisons IGF-1R/IR (IGF-1R): 14.6
Molecule: QGGSASFYDAIDRLLRMRIGG [20E2A-4-F11-IGFR]

Comparisons IR/IGF-1R (IR): 0.1
Comparisons IGF-1R/IR (IGF-1R): 16.0
Molecule: GIISQSCPESFYDWFAGQVSDPWWCW [H2CA-4-G9-IGFR]

Comparisons IR/IGF-1R (IR): 0.3
Comparisons IGF-1R/IR (IGF-1R): 3.9
Molecule: TLDGGSFEEQFYDWFVRQLSYRTNPD [H2CA-4-G11-IGFR]

Comparisons IR/IGF-1R (IR): 0.7
Comparisons IGF-1R/IR (IGF-1R): 1.4
Molecule: AGSVTSFYDAMEQLVATGTSA [20E2A-3-A4-IGFR]

Comparisons IR/IGF-1R (IR): 0.4
Comparisons IGF-1R/IR (IGF-1R): 2.8
Molecule: EAASLGSQDRNFYDWFVRQVV [Peptide A6S-2-D11-IR]

Comparisons IR/IGF-1R (IR): 0.1
Comparisons IGF-1R/IR (IGF-1R): 12.3
Molecule: VGYQGQGDENFYDWFIRQVSGRLGVQ [H2CA-4-F5-IGFR]

Comparisons IR/IGF-1R (IR): 0.2
Comparisons IGF-1R/IR (IGF-1R): 5.9
Molecule: VNQSGSIHENFYDWFERQVSHQRGVR [H2CA-4-F10-IGFR]
